{
  "source": "patent US11332716B2",
  "about": "“Methods and compositions for producing pancreatic beta cells” (The Regents of the University of California, priority 2015, dated 2022)",
  "test_system": "PDX1+/NKX6.1+ pancreatic progenitor cells",
  "test": "Direct differentiation of PDX1+/NKX6.1+ progenitors to pancreatic beta cells",
  "format": "cell-based, human",
  "details": "alone; does not maintain any progenitor expression",
  "protocol": "Variations on the direct differentiation method disclosed herein (see, e.g., Examples 13 and 17) were also developed that yielded efficient and cost-effective production of functional pancreatic beta cells from pluripotent stem cells. Illustrated schematically in FIG. 24, one method according to the disclosure provides embryonic stem cells (e.g., human embryonic stem cells) that were exposed to retinoic acid and incubated for a sufficient time to see expression of PDX1. During this time, the cells were not exposed to bone morphogenetic protein (BMP), which can lead to precocious endocrine differentiation and, ultimately, the production of non-functional polyhormonal cells. PDX1^+ cells were then exposed to 50 ng/ml epidermal growth factor (EGF) and 50 ng/ml keratinocyte growth factor (KGF or K) in DMEM basal media containing IX GLUTAMAX™ (Invitrogen), IX non-essential amino acids (Invitrogen) and serum-free IX B27supplement (Life Technologies) for an extended period of 24-48 hours under the culture conditions disclosed herein. The extended incubation of pancreatic progenitor PDX1^+ cells in the absence of BMP led to the efficient production of […] pancreatic progenitor cells. The PDX1^+NKX6.1^+cells were then incubated in an optimized combination of growth factors to induce NGN3 expression while maintaining expression of PD1 and NKX6.1. […]",
  "data": [
    {"molecule": "C[C@H](NC(=O)Cc1cc(F)cc(F)c1)C(=O)N[C@@H]1C(=O)N(C)c2ccccc2-c2ccccc21", "note": "[gamma secretase inhibitor XX]", "values": [
      {"measurement": "endocrine differentiation", "result": "induces endocrine differentiation efficiently"}
    ]}
  ]
}
